These results are taken from patent publication US12492188B2, “1H-benzo[D]imidazole derivatives as TLR9 inhibitors for the treatment of fibrosis” (BRISTOL-MYERS SQUIBB COMPANY, priority 2020, dated 2025).

Usually pIC50 stands for −log10 of the IC50, conventionally taken in molar units.

pIC50: −log10 of the molar value.

Holding throughout (format): cell-based
The target of one experiment is T1, human TLR7 (Homo sapiens, UniProt Q9NYK1).
T1 construct: host or cells: HEK-Blue cells (HEK293-derived reporter line)
T1 sequence (Q9NYK1 27-1049): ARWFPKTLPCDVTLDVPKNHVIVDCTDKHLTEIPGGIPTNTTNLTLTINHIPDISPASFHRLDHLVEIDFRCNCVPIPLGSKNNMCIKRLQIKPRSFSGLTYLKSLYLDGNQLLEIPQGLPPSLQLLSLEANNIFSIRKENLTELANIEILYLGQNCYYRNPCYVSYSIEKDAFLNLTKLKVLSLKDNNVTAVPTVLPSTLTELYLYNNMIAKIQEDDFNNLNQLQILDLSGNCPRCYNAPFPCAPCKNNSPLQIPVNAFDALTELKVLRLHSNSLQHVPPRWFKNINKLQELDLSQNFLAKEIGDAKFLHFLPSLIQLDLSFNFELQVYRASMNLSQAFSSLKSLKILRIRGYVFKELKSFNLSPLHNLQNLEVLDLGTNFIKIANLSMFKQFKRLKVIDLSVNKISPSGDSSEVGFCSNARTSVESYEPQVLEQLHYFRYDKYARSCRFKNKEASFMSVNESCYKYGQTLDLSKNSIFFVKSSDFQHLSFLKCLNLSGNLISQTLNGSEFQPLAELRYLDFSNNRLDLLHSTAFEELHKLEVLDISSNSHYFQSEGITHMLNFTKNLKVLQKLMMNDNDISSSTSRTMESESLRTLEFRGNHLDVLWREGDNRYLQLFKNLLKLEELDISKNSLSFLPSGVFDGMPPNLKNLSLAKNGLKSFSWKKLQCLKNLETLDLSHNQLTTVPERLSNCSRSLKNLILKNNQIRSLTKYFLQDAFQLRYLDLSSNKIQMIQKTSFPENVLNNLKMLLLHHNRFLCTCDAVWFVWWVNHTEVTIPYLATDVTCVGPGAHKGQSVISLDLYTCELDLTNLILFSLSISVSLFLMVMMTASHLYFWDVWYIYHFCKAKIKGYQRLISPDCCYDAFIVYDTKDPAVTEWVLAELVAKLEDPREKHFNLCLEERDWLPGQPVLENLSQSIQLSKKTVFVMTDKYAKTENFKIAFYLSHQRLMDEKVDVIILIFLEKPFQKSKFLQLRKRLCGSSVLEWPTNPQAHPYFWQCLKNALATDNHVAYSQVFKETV
The experiment in a line: TLR7 inhibition reporter assay (HEK-Blue cells, secreted embryonic alkaline phosphatase reporter). The conditions noted are these: HEK-Blue cells overexpressing human TLR7, stimulated with gardiquimod 7.5 μM; read-out: TLR 7 IC50. In outline: (§1)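 Agonist-driven SEAP output was measured in HEK-Blue reporter cells carrying human TLR7 (gardiquimod 7.5 μM), TLR8 (R848 15.9 μM) or TLR9 (ODN2006 5 nM). Compounds at 0.05 nM–50 μM final were added 30 min before stimulation at room temperature. After 22 h at 37 °C, percent inhibition was taken against agonist/DMSO wells and a reference inhibitor.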

For another experiment, the target named is T2, human TLR9 (Homo sapiens, UniProt Q9NR96).
T2 construct: host or cells: HEK-Blue cells (HEK293-derived reporter line)
T2 sequence (Q9NR96 26-1032): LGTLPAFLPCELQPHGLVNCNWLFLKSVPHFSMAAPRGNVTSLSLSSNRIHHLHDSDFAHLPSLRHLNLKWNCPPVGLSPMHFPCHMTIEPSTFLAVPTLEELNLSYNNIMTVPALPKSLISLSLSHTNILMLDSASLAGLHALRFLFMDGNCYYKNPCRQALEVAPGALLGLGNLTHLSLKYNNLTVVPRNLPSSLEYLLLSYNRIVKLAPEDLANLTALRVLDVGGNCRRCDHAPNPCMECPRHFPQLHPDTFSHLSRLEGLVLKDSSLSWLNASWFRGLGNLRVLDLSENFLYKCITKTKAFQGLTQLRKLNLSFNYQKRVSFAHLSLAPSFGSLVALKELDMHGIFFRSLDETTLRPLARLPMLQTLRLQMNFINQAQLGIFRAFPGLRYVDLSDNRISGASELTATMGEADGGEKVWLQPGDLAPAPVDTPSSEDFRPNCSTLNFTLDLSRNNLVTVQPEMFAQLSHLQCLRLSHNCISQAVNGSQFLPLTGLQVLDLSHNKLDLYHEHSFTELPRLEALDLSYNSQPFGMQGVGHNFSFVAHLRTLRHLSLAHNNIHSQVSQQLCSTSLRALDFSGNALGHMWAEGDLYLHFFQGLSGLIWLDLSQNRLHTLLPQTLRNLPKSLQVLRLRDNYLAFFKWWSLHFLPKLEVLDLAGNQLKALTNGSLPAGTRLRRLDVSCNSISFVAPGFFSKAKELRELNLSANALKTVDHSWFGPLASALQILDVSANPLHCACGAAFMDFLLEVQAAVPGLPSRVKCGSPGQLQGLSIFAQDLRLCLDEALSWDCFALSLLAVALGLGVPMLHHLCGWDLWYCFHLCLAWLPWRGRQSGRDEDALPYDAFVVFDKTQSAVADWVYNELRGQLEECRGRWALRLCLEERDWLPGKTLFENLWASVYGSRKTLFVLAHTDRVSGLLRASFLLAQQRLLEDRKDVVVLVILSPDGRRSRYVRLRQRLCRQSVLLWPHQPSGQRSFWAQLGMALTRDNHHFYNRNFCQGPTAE
The experiment in a line: TLR9 inhibition reporter assay (HEK-Blue cells, secreted embryonic alkaline phosphatase reporter). The settings on record: HEK-Blue cells overexpressing human TLR9, stimulated with ODN2006 5 nM, 22 hour incubation, reporter readout. In outline:
as §1
Background: A reporter such as luciferase makes a cellular process visible.

The target in the next experiment is T3, human TLR8 (Homo sapiens, UniProt Q9NR97).
T3 construct: host or cells: HEK-Blue cells (HEK293-derived reporter line)
T3 sequence (Q9NR97 27-1041): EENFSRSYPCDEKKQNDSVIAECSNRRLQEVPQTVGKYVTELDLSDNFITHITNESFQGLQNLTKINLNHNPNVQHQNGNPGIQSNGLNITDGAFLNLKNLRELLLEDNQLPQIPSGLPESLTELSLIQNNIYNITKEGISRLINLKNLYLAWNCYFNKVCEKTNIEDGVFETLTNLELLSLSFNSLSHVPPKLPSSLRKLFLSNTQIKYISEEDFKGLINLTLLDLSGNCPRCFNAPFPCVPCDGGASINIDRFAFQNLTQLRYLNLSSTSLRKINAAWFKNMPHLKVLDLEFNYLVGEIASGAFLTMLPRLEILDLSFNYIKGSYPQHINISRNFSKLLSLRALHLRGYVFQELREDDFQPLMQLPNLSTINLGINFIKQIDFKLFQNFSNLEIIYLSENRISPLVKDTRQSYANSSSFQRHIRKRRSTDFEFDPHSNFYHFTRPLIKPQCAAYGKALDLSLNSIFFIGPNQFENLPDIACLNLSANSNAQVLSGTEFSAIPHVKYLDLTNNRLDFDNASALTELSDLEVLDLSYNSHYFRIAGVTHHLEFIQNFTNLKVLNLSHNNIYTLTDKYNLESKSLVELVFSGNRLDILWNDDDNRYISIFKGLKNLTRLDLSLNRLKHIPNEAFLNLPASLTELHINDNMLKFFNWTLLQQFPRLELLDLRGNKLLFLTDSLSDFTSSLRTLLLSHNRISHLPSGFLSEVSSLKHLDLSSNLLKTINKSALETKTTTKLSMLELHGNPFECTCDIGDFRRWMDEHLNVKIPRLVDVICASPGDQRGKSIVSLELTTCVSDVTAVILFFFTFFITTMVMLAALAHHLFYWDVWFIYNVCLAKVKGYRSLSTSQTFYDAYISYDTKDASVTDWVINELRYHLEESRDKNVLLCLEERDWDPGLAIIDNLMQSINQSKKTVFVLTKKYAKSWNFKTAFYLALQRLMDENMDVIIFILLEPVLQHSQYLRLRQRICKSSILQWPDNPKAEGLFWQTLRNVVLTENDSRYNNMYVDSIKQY
Kind of experiment: TLR8 inhibition reporter assay (HEK-Blue cells, secreted embryonic alkaline phosphatase reporter). The settings on record: HEK-Blue cells overexpressing human TLR8, stimulated with R848 15.9 μM; read-out: TLR 8 IC50. As to the method:
TLR7/8/9 Inhibition Reporter Assays
HEK-Blue™-cells (Invivogen) overexpressing human TLR7, TLR8 or TLR9 receptors were used for screening inhibitors of these receptors using an inducible SLAP (secreted embryonic alkaline phosphatase) reporter gene under the control of the […] minimal promoter fused to five NF-κB and AP-1-binding sites. Briefly, cells are seeded into Greiner 384 well plates (15000 cells per well for TLR7, 20,000 for TLR8 and 25,000 for TLR9) and then treated with test compounds in DMSO to yield a final dose response concentration range of 0.05 nM-50 μM. After a 30 minute compound pre-treatment at room temperature, the cells are then stimulated with a TLR7 ligand (gardiquimod at a final concentration of 7.5 μM), TLR8 ligand (R848 at a final concentration of 15.9 μM) or TLR9 ligand (ODN2006 at a final concentration of 5 nM) to activate NF-κB and AP-1 which induce the production of SLAP. After a 22 hour incubation at 37° C., […], SLAP levels are determined with the addition of HEK-Blue™ Detection reagent (Invivogen), a cell culture medium that allows for detection of SLAP, according to manufacturer's specifications. The percent inhibition is determined as the […] in the HEK-Blue signal present in wells treated with agonist plus DMSO alone compared to wells treated with a known inhibitor.

For `CC(C)N1C2CCC1CC(N1CCC(c3cc(F)c4c(c3)nc(-c3ccc(S(C)(=O)=O)cc3)n4C)CC1)C2` (single isomer, unassigned) [Example 93, 7-fluoro-5-(1-(8-isopropyl-8-azabicyclo[3.2.1]octan-3-yl)piperidin-4-yl)-1-methyl-2-(4-(methylsulfonyl)phenyl)-1H-benzo[d]imidazole], the pIC50 on human TLR7 is under 4.30; on human TLR9, 6.19; at human TLR8, under 4.30.
In the case of `CC(C)N1C2CCC1CC(N1CCC(c3ccc4nc(-c5ccc(S(C)(=O)=O)cc5)[nH]c4c3F)CC1)C2` (single isomer, unassigned) [Example 94, 7-fluoro-6-(1-(8-isopropyl-8-azabicyclo[3.2.1]octan-3-yl)piperidin-4-yl)-2-(4-(methylsulfonyl)phenyl)-1H-benzo[d]imidazole], the negative-log IC50 (pIC50) on human TLR7 was under 4.30; at human TLR9 it was 7.14; at human TLR8, under 4.30.
With `CC(C)N1C2CCC1CC(N1CCC(c3ccc4nc(-c5ccc(S(C)(=O)=O)cc5)[nH]c4c3F)CC1)C2` (single isomer, unassigned) [Example 95, 7-fluoro-6-(1-(8-isopropyl-8-azabicyclo[3.2.1]octan-3-yl)piperidin-4-yl)-2-(4-(methylsulfonyl)phenyl)-1H-benzo[d]imidazole], the values for the negative logarithm of the IC50 (pIC50) at human TLR7, at human TLR9 and at human TLR8 were under 4.30, 7.54 and under 4.30, respectively.
For `CC(C)N1C2CCC1CC(N1CCC(c3cc4c(cc3F)nc(-c3ccc(S(C)(=O)=O)cc3)n4C)CC1)C2` (single isomer, unassigned) [Example 97, 5-fluoro-6-(1-(8-isopropyl-8-azabicyclo[3.2.1]octan-3-yl)piperidin-4-yl)-1-methyl-2-(4-(methylsulfonyl)phenyl)-1H-benzo[d]imidazole], the pIC50 on human TLR7 is 4.33; at human TLR9, 7.10; on human TLR8, under 4.30.
Take `CC(C)N1C2CCC1CC(N1CCC(c3cc4c(cc3F)nc(-c3ccc(S(C)(=O)=O)cc3)n4C)CC1)C2` (single isomer, unassigned) [Example 98, 5-fluoro-6-(1-(8-isopropyl-8-azabicyclo[3.2.1]octan-3-yl)piperidin-4-yl)-1-methyl-2-(4-(methylsulfonyl)phenyl)-1H-benzo[d]imidazole]: the pIC50 at human TLR7 is 4.62; at human TLR9, 8.00; on human TLR8, under 4.30.
Taken in the same sequence, the figures for `CC(C)N1C2CCC1CC(N1CCC(c3cc4nc(-c5ccc(S(C)(=O)=O)cc5)n(C)c4cc3F)CC1)C2` (single isomer, unassigned) [Example 100, 6-fluoro-5-(1-(8-isopropyl-8-azabicyclo[3.2.1]octan-3-yl)piperidin-4-yl)-1-methyl-2-(4-(methylsulfonyl)phenyl)-1H-benzo[d]imidazole] were 4.40, 7.21 and under 4.30.
With `CC(C)N1C2CCC1CC(N1CCC(c3cc4nc(-c5ccc(S(C)(=O)=O)cc5)n(C)c4cc3F)CC1)C2` (single isomer, unassigned) [Example 101, 6-fluoro-5-(1-(8-isopropyl-8-azabicyclo[3.2.1]octan-3-yl)piperidin-4-yl)-1-methyl-2-(4-(methylsulfonyl)phenyl)-1H-benzo[d]imidazole], the pIC50 on human TLR7 was 4.71; against human TLR9, 7.12; on human TLR8, under 4.30.
Regarding `CC(C)N1C2CCC1CC(N1CCC(c3ccc4nc(-c5ccc(S(C)(=O)=O)cc5)n(C)c4c3F)CC1)C2` (single isomer, unassigned) [Example 103, 7-fluoro-6-(1-(8-isopropyl-8-azabicyclo[3.2.1]octan-3-yl)piperidin-4-yl)-1-methyl-2-(4-(methylsulfonyl)phenyl)-1H-benzo[d]imidazole], the pIC50 at human TLR7 is 4.59; against human TLR9, 7.27; on human TLR8, under 4.30.
